The numbers were not newly measured in patent US9314419B2, “Oral care compositions with a reduced bitter taste perception” (The Procter & Gamble Company, priority 2014, dated 2016), which cites them from elsewhere.

For this data set the following is noted: concentration level where the cooling effect can be clearly recognized.
In the case of `CC(C)[C@@H]1CC[C@@H](C)C[C@@H]1O` [d-neomenthol], the cooling threshold entry is on record as “about 25,000 ppb”. As to `CC(C)[C@@H]1CC[C@@H](C)C[C@H]1O` [L-menthol], the cooling threshold result was “about 800 ppb”.

Regarding `CC(C)[C@@H]1CC[C@@H](C)C[C@@H]1O` [Example 1-neomenthol, 1-neomenthol], the cooling threshold result is reported as “about 3,000 ppb”.
